{"source": "patent US7553505B2", "about": "“Health care product containing isoflavone aglycones and method of producing the same” (The Hong Kong University of Science and Technology, priority 2006, dated 2009)", "key": {"[1]": {"assay": "Solubility in alcohol against temperature (FIG. 2)", "assay_type": "physicochemical", "details": "within the specific temperature range of FIG. 2", "from_the_text": "FIG. 2 is a diagram showing the solubilities of genistein and daidzein in methanol against temperature.\nThe first step of the method as described above is extraction. This process of grinding starting materials disrupts their tissue structure to enable the isoflavone fractions more easily extracted by the organic solvent. Then, an organic solvent, preferably ethanol, is used to recover isoflavones based on the high solubilities and steadiness of isoflavones in the selected solvents. […] Ethanol (edible alcohol) is preferred in this invention to ensure the isoflavone product will not endanger human health even with the remains of solvent. The extraction is carried out at a temperature ranging from 40 to 90° C. for 2-24 hrs, with the material ratio (volume:weight) of solvent to flour between 1:1 and 10:1 (mL:g)."}, "[2]": {"details": "Mitchell et al., 1998; Setchell et al., 2003; cited from earlier work"}}, "data": [{"smiles": "O=c1c(-c2ccc(O)cc2)coc2cc(O)cc(O)c12", "note": "[genistein, Genistein]", "values": [{"measurement": "solubility in alcohol including methanol and ethanol versus temperature", "setting": "[1]", "value": "increase evidently with increasing temperature"}, {"measurement": "biological activities among the twelve soy isoflavones", "setting": "[2]", "value": "highest biological activities"}]}]}
